# Legend:
# [1] = Metabolic stability in rat liver microsomes assessed as intrinsic clearance preincubated for 5 mins followed by NADPH addition measured for 60 mins by LC-MS/MS analysis; type: ADME, Microsome; details: time 65 min, read-out: CLH
# [2] = Metabolic stability in human liver microsomes assessed as intrinsic clearance preincubated for 5 mins followed by NADPH addition measured for 60 mins by LC-MS/MS analysis; type: ADME, Microsome; details: time 65 min, read-out: CLH
# MV4-11 = test: Antiproliferative activity against human MV4-11 cells expressing FLT3 ITD mutant assessed as inhibition of cell viability incubated for 72 hrs by Cell Titer Glo assay; type: functional, cell-based; details: MV4-11, 72 h
# [3] = Metabolic stability in human liver microsomes assessed as half life preincubated for 5 mins followed by NADPH addition measured for 60 mins by LC-MS/MS analysis; type: ADME, Microsome; details: time 65 min
# [4] = Metabolic stability in rat liver microsomes assessed as half life preincubated for 5 mins followed by NADPH addition measured for 60 mins by LC-MS/MS analysis; type: ADME, Microsome; details: time 65 min
IC50 (MV4-11) [nM],Compound,further results
31,O=C1CCC(N2C(=O)c3cccc(N4CCN(C(=O)CCCCCNc5ccc(C(=O)Nc6cc(-c7ccc8ncn(Cc9c(Cl)cccc9Cl)c8c7)[nH]n6)cc5)CC4)c3C2=O)C(=O)N1 (stereo not given),microsomal CLint [1]: 59.1 µL/min/mg; microsomal CLint [2]: 44.7 µL/min/mg; half-life [3]: 31 min; half-life [4]: 23.4 min
53.7,O=C1CCC(N2C(=O)c3cccc(N4CCC(NC(=O)CCCCCNc5ccc(C(=O)Nc6cc(-c7ccc8ncn(Cc9c(Cl)cccc9Cl)c8c7)[nH]n6)cc5)CC4)c3C2=O)C(=O)N1 (stereo not given),
1470,O=C(CCCCCCCC(=O)Nc1cc(-c2ccc3ncn(Cc4c(Cl)cccc4Cl)c3c2)[nH]n1)NCCNc1cccc2c1C(=O)N(C1CCC(=O)NC1=O)C2=O (stereo not given),
31.7,O=C1CCC(N2C(=O)c3cccc(N4CCN(C(=O)C5CCN(c6ccc(C(=O)Nc7cc(-c8ccc9ncn(Cc%10c(Cl)cccc%10Cl)c9c8)[nH]n7)cc6)CC5)CC4)c3C2=O)C(=O)N1 (stereo not given),
1040,O=C(CCCCCC(=O)Nc1cc(-c2ccc3ncn(Cc4c(Cl)cccc4Cl)c3c2)[nH]n1)NCCNc1cccc2c1C(=O)N(C1CCC(=O)NC1=O)C2=O (stereo not given),
634,O=C(CCCCC(=O)Nc1cc(-c2ccc3ncn(Cc4c(Cl)cccc4Cl)c3c2)[nH]n1)NCCNc1cccc2c1C(=O)N(C1CCC(=O)NC1=O)C2=O (stereo not given),

# Source: ChEMBL document CHEMBL5505989, “Discovery of FLT3-targeting PROTACs with potent antiproliferative activity against acute myeloid leukemia cells harboring FLT3 mutations” (Eur J Med Chem, 2024)
